Data published in patent US20150093333A1, “COMPOSITIONS, METHODS AND USES FOR PEPTIDES IN DIAGNOSIS, PROGRESSION AND TREATMENT OF CANCERS” (THE REGENTS OF THE UNIVERSITY OF COLORADO, body corporate, priority 2003, published 2015).
Read-outs that look alike come from different tables or passages of the source. Where no end group is shown, it is not given here. [ ]: non-standard residue; d: D form. Lys(N3) = [N-]=[N+]=NCCCC[C@H](N)C(=O)O; Pra = C#CC[C@H](N)C(=O)O

B1: Syt1: Synaptotagmin-I, curvature-sensing protein used as positive control (protein, UniProt P21707 1-421, looked up)
Synaptotagmin-1: MVSASHPEALAAPVTTVATLVPHNATEPASPGEGKEDAFSKLKQKFMNELHKIPLPPWALIAIAIVAVLLVVTCCFCVCKKCLFKKKNKKKGKEKGGKNAINMKDVKDLGKTMKDQALKDDDAETGLTDGEEKEEPKEEEKLGKLQYSLDYDFQNNQLLVGIIQAAELPALDMGGTSDPYVKVFLLPDKKKKFETKVHRKTLNPVFNEQFTFKVPYSELGGKTLVMAVYDFDRFSKHDIIGEFKVPMNTVDFGHVTEEWRDLQSAEKEEQEKLGDICFSLRYVPTAGKLTVVILEAKNLKKMDVGGLSDPYVKIHLMQNGKRLKKKKTTIKKNTLNPYYNESFSFEVPFEQIQKVQVVVTVLDYDKIGKNDAIGKVFVGYNSTGAELRHWSDMLANPRRPIAQWHTLQVEEEVDAMLAVKK
B2: C2AB: intact C2A-C2B cytoplasmic domains of rat Synaptotamin-1 (a.a. 96-421), positive control (protein, UniProt P21707 96-421, looked up, fragment)
chain: GGKNAINMKDVKDLGKTMKDQALKDDDAETGLTDGEEKEEPKEEEKLGKLQYSLDYDFQNNQLLVGIIQAAELPALDMGGTSDPYVKVFLLPDKKKKFETKVHRKTLNPVFNEQFTFKVPYSELGGKTLVMAVYDFDRFSKHDIIGEFKVPMNTVDFGHVTEEWRDLQSAEKEEQEKLGDICFSLRYVPTAGKLTVVILEAKNLKKMDVGGLSDPYVKIHLMQNGKRLKKKKTTIKKNTLNPYYNESFSFEVPFEQIQKVQVVVTVLDYDKIGKNDAIGKVFVGYNSTGAELRHWSDMLANPRRPIAQWHTLQVEEEVDAMLAVKK

What was measured:
lipid vesicles [1] = assay: 1H NMR of C2B derived peptides treated with lipid vesicles; format: binding
Procedure: To verify that the origin of the differential peptide interaction towards lipid vesicles is due to the innate property of the peptide itself and not due to the fluorophores, ^1H NMR spectrometry investigations to probe the interaction of C2B derived peptides were carried out.
This observation is in contrast to NMR profiles of peptides that are known to interact with liposomes.

[2] = system: 8:2 POPC/POPS lipid vesicles; assay: Fluorescence enhancement assay of C2B derived peptides with lipid vesicles; format: binding; details: for lipid vesicle binding and curvature sensing (fluorescence enhancement): 8:2 POPC/POPS vesicles 0.03 to 0.08 μm
Procedure: In certain examples, lipid vesicles were prepared using extrusion through membranes with pore sizes of 30, 80, and 400 nm to cover a wide range of curvatures. […] A lipid film was deposited on a glass vial by blowing down to dryness with Ar or N2 a CHCl3 solution of the lipids (Avanti Polar Lipids), followed by the removal of residual organic solvent under vacuum for several hours. The lipid film was hydrated overnight at 4° C. in PBS pH 7.4, the lipid suspension of multilamellar vesicles were subjected to five freeze-thaw cycles (except for extrusion through 400 nm pores), and followed by extrusion through polycarbonate membranes with pore diameters of 30, 80, and 400 nm to produce the desired SUVs using […]. […] An increase in the observed fluorescence intensity and a blue shifted λem maximum are directly correlated to a change in the environment surrounding the peptide, e.g., from the polar aqueous solvent to the hydrophobic lipid vesicle, and indicate a peptide-lipid interaction. The peptides were prepared by microwave-assisted SPPS, purified by reversed phase HPLC, and characterized by MALDI-TOF-MS. […] An increase in the observed fluorescence intensity and a blue shifted λem maximum are directly correlated to a change in the environment surrounding the peptide, i.e., from the polar aqueous solvent to the hydrophobic lipid vesicle, indicating a peptide-lipid interaction. Lipid vesicles composed of 8:2 palmitoyl oleoyl phosphatidylcholine (POPC) and palmitoyl oleoyl phosphatidylserine (POPS) were used to represent the approximate phospholipid composition of cellular membranes. These vesicles were prepared by extruding a suspension of multilamellar lipid vesicles in PBS buffer (pH=7.4) through polycarbonate membranes. The diameters of these lipid vesicles were measured using dynamic light scattering (DLS) that was calibrated with 50 nm polystyrene beads. […] FIG. 2 illustrates exemplary fluorescence assays performed to assess the interaction of labeled-peptides on synthetic and biologically relevant lipid vesicles. […]

lipid vesicles [3] = details: cited from earlier work
[4] = system: synthetic vesicles of sizes 100 nm and 400 nm; assay: Cosedimentation assay of MARCKS-ED with synthetic vesicles; format: binding; details: gel electrophoresis of supernatant and pellet
Text: In another exemplary method, lipid vesicles were employed to the curvature-sensing behavior of the MARCKS derived peptides with various sizes and lipid components. The membrane curvature is defined as the reciprocal of the diameter of a particular particle, e.g., smaller-sized vesicles present highly curved membrane bilayers. A series of lipid models were made to represent various lipid components that closely resemble the lipid composition of biological membranes. […] Dynamic light scattering (DLS) and negative-stain transmission electron microscopy (TEM) were performed to confirm the different vesicle sizes following the pressure-controlled extrusion process through different membrane diameter pores. Commercial polystyrene beads were used as the calibration standard for the vesicle size validation experiments. Furthermore, a time-course experiment was carried out to confirm the stability of the vesicles up to 16 hours. Three different membrane diameters were extruded for the following biophysical characterizations: 30 nm, 100 nm, 400 nm, reflecting different membrane curvatures.
In another exemplary method, a cosedimentation assay was performed to test the size differentiation behavior of MARCKS-ED. Two vesicle pore sizes, 100 and 400 nm, were used in this experiment because vesicles smaller than 100 nm were difficult to pellet even at high centrifugation speed. MARCKS-ED (10 μM) was incubated with 600 μM synthetic vesicles of sizes 100 nm and 400 nm. The positive control was the intact C2A-C2B cytoplasmic domains (C2AB) of rat Synaptotamin-1 (a.a. 96-421). C2AB (1.5 μM) was treated with CaCl2 (1 mM) and incubated with 300 μM synthetic vesicles of sizes 100 nm and 400 nm. C2AB treated with vesicles was incubated at room temperature for 30 minutes, followed by centrifugation of 65,000 rpm for 45 minutes at 20° C. MARCKS-ED treated with vesicles was incubated at room temperature for 2 hours, followed by 75,000 rpm for 45 minutes at 20° C. […]

| Molecule | interaction with liposomes (1H NMR peak intensity) (lipid vesicles [1]; 0.03 μm vesicles) | interaction with liposomes (1H NMR peak intensity) (lipid vesicles [1]; vesicles with d=55±6 nm) | lipid vesicle binding and curvature sensing (fluorescence enhancement) [2] | Kd (lipid vesicles [3]; 105 nm vesicles) | other results |
| --- | --- | --- | --- | --- | --- |
| Ac-GGDYDKIGKNDA-NH2 [C2B-Ac 3, linear 12-residue peptide derived from amino acids 363-372 of Syt1] | does not interact with the liposomes | weaker binding |  |  |  |
| C2B-Trp 4: linear GGDYDKIGKNDA peptide with N-terminal tryptophan (N-terminal tryptophan) | are interacting with the lipid vesicles |  | significant binding and curvature sensing property |  |  |
| C2B-Cou 5: linear GGDYDKIGKNDA peptide N-terminally labeled with 7-hydroxycoumarin-3-carboxylic acid ({7‑hydroxycoumarin‑3‑carbonyl}-GGDYDKIGKNDA) | are interacting with the lipid vesicles |  | significant binding and curvature sensing property |  |  |
| C2BL3C 1: 12-residue cyclic peptide from Syt1 C2B loop 3, Click cyclization of GGPraDYDKIGKNDANle(ε-N3) (GG[Pra]DYDKIGKNDA[Lys(N3)]-NH2; triazole (positions not given here); numbers in words are those of the source; also: Pra after Gly2 and Nle(ε-N3) after Ala12 joined by click triazole (head-to-tail side-chain cyclisation)) |  | also interacts with liposomes |  |  |  |
| B1 |  |  |  | 151 µM | fluorescence enhancement ([2]; with 30 nm vesicles, FIG. 2a): 1.28±0.02 RFU; Kd (lipid vesicles [3]; 252 nm vesicles): 263 ± 180 µM |
| B2 |  |  |  | 151 ± 6 µM | pull-down by 100 nm vs 400 nm PS-containing vesicles [4]: more MARCKS-ED or C2AB was pulled down by the 100 nm, PS-containing vesicles than by the larger 400 nm vesicles; increase in binding to smaller vesicles (105 nm) relative to the larger ones (252 nm) (lipid vesicles [3]): 1.9 fold |
